Experiments:
[1] = tested on: PC3 cells; test: PC3 cell proliferation with Tet-inducible IBS or DKK3 constructs; assay type: cell-based; settings: limited antibiotic induction of Tet-inducible construct
From the text: The relationship between IBS and the Wnt/β-catenin signaling pathway was defined by cell proliferation, promoter-driven reporter assays, and cell migration analysis. Limited antibiotic induction of Tet-inducible IBS or DKK3 constructs was used to avoid the untoward effects of over-expression. […] (Veeck et al. 2012 Biochim Biophys Acta 1825, 18-28; Hsieh et al. 2004 Oncogene 23, 9183-9189; Abarzua et al 2005 Cancer Res 65, 9617-9622; Edamura et al. 2007 Cancer Gene Ther 14, 765-772.)

[2] = target: native, unphosphorylated β-catenin (UniProt P35222); test: cell-based or functional assay
UniProt P35222, sequence (P35222 2-781 limits assumed): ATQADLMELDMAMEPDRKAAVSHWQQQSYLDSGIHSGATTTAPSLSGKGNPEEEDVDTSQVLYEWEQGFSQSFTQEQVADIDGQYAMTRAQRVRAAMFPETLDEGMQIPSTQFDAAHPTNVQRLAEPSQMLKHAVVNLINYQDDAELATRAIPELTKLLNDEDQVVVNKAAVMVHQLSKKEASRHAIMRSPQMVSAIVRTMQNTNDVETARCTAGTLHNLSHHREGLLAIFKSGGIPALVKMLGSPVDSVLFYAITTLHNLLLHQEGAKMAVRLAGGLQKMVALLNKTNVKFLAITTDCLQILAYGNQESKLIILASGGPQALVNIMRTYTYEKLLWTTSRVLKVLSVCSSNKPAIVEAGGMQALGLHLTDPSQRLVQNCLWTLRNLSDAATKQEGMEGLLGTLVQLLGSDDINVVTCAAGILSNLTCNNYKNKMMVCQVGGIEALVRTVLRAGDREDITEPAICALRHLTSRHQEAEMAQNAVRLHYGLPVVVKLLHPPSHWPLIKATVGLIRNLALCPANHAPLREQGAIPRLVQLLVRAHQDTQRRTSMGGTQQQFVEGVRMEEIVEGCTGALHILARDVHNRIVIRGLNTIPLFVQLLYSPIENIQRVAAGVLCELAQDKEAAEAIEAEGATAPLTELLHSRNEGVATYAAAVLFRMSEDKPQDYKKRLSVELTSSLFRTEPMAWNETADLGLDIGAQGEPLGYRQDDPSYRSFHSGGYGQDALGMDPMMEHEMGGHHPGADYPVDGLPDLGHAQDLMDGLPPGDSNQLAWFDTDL

[3] = tested on: human ovarian, pancreatic, and colon cancers; test: Tumor growth in tumor bearing PDX-mice; assay type: in vivo, mouse
From the text: (§1) Delivery of this intracellular tumor suppressor to the cytoplasm of the cancer cell is essential to achieve the cancer cell growth arrest and apoptosis. First attempts were made by fusing a variant of the cell penetrating peptide-TAT.

[4] = in vivo
From the text: as §1

[5] = tested on: PC3 cells; test: PC3 cell proliferation after TAT-fusion protein/peptide; assay type: cell-based
Procedure: (§2) Over-expression of DKK3 in cancer cells initiates c-Jun Kinase (JNK) mediated apoptosis. (Abarzua et al. 2005 Cancer Res 65, 9617-9622; Kawasaki et al. 2009 Cancer Gene Ther 16, 65-72.) IBS and the JNK inhibitor, TAT-JBD were introduced into PC3 cells as TAT-fusion protein and peptide, respectively, and cell proliferation was measured after 3 days. […] Pro-apoptotic levels of cleaved Caspase 3 increased in TAT-IBS treated cells and this increase was blocked by inhibition of JNK activity (FIG. 8d). […] (Veeck et al. 2012 Biochim Biophys Acta 1825, 18-28; Abarzua et al. 2005 Cancer Res 65, 9617-9622.)

[6] = tested on: Cleaved Caspase 3; test: Cleaved Caspase 3 in PC3 cells; assay type: cell-based
Procedure: as §2

[7] = tested on: HEK293 cells; test: Basal and Wnt stimulated proliferation of HEK293 cells; assay type: cell-based; settings: HEK293, highest concentration tested
From the text: The impact of IBS on basal and Wnt stimulated cell proliferation was then examined in immortalized HEK293 cells (FIG. 9a). […] The more robust silencing by TAT-IBS is likely due to the universal delivery of this regulator to the cell monolayer.

[8] = tested on: β-catenin; test: Tcf-luciferase promoter reporter assay; assay type: cell-based; settings: Wnt1 co-transfected cells, treated 24 h
Procedure: Primary and downstream promoter-luciferase reporter assays were used to explore the interaction between IBS and β-catenin-driven gene expression. Cells were co-transfected with Wntl and promoter-driven luciferase constructs and treated with TAT-IBS for 24 h. […] The ability of IBS to modulate two downstream β-catenin modulated pathways that reduce cell adhesion (ECad) and promote cell cycle progression (E2F) was also examined. […] Motile MDA-MB-231 cells were used to examine the effect of IBS on β-catenin dependent cell migration. IBS slowed malignant cell migration by >60% (FIG. 9d).

[9] = tested on: NF-κB (p65); test: NF-κB (p65)-responsive promoter luciferase reporter in HEK293 cells; assay type: cell-based; settings: HEK293 cells stimulated by Wnt-1 transfection
From the text: (§3) FIG. 23. TAT-IBS antagonizes primary and secondary β-catenin and NF-κB-dependent gene expression. A) TAT-IBS blocks an NF-κB (p65)-responsive promoter driving luciferase reporter in HEK293 cells that was stimulated by Wnt-1 transfection (shaded bars). […] C) (Data previously disclosed in UMMC 12-40PR2). TAT-IBS restores E-Cadherin (CDH1)-promoter activity in Wnt-1 stimulated cells (middle chart). TopFlash and E2F-luciferase reporters are dependent on β-TrCP substrates, β-catenin and E2F, respectively (top and bottom charts). TAT-IBS blocks transcriptional activation by Wnt-1 stimulation of both reporters. DKK3b fused to an N-terminal cell penetrating peptide, a protein construct we refer to as TAT-IBS (a.k.a. cpIBS), regulates the activity of promoter elements that depend upon the nuclear translocation of β-TrCP target substrates (FIG. 23) as determined by promoter-luciferase reporter assays. Wnt-1 stimulates transcription regulated by NF-κB (FIG. 23A), β-catenin, and E2F (FIG. 23 C) transcription factor proteins. TAT-IBS treatment blocks this Wnt-1-induced stimulation. In contrast, Wnt-1 down-regulates transcription from promoter elements of two biomarkers of epithelial cellular differentiation, E-cadherin (FIG. 23C) and Elf3 (FIG. 23B). TAT-IBS treatment blocks Wnt-1-induced repression of these two epithelial gene transcripts.

[10] = tested on: Elf3; test: Elf3-luciferase reporter assay; assay type: cell-based; settings: suppressed by Wnt-1 stimulation
From the text: as §3

With “DKK3: secreted glycoprotein product of the DKK3 locus” the PC3 cell proliferation [1] was “did not alter the rate of PC3 cell proliferation”.
In the case of “TAT-IBS (DKK3b fused to an N-terminal cell penetrating peptide) (from UniProt Q9UBP4 72-350)”, the nuclear β-catenin level in LiCl-stimulated SOAS-2 and HeLa cells (cell fractionation) (fraction of untreated controls) [2] is reported as 0.33 and the total cell content and distribution of β-catenin (nuclear, cytosolic and microfilament fractions) [2] is reported as 3 fold.
With “TAT-IBS: DKK3b fused to an N-terminal cell penetrating peptide; bacterially expressed, unfolded fusion protein” the tumor necrosis ([3]; pancreatic, and colon cancers in PDX-mice) was “led to tumor necrosis”, the “growth of human cancers in PDX-mice” value ([3]; pancreatic, and colon cancers, bacterially expressed, unfolded protein) was “arrested growth” and the “effects on biology in the mouse” value [4] was “no effects on any biology in the mouse”. For the same substance, the “loss of the initial cell population” value ([5]; PC3 cells, after 3 days) was > 75%, the PC3 cell proliferation ([5]; TAT-fusion protein, measured after 3 days) was “arrested proliferation” and the “pro-apoptotic levels of cleaved Caspase 3” value [6] was “increased”. For the same substance, the Wnt-stimulated cell proliferation [7] was “completely eliminated”, the basal cell proliferation [7] was “without altering basal cell proliferation” and the “Wnt stimulated Tcf-luciferase expression” value [8] was “completely arrested”. For the same substance, the “NF-κB (p65)-responsive promoter luciferase reporter” value [9] was “blocks” and the “transcriptional activity of Elf3-luciferase” value [10] was “restores transcriptional activity”.

Reference: patent publication US11116851B2, “Anti-cancer and anti-inflammatory therapeutics and methods thereof” (University of Massachusetts, priority 2015, dated 2021)
